The target of one assay is T1, ERRγ (Homo sapiens, UniProt P62508).
T1 construct: expressed in transfected cells; host or cells: HEK293
T1 sequence (P62508 1-458): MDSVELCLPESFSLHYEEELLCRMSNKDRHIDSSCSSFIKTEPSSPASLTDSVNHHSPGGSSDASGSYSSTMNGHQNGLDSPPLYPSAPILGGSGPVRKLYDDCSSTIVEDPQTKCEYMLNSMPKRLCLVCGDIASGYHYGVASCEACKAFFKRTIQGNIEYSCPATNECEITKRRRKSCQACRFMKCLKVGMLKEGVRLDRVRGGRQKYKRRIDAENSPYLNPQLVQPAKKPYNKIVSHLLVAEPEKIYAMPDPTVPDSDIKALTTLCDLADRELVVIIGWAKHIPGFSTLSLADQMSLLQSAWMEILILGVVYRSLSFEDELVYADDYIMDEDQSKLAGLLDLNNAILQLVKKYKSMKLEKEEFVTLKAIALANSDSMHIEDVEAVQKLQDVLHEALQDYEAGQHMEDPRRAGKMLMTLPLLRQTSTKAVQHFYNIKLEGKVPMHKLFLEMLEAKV
The experiment in a line: ERRE luciferase reporter assay in HEK293 cells transfected with pcDNA3.1 ERRγ. Type of assay: cell-based. Set-up: key to EC50 (ERRγ) μM: * <1 μM; ** 1-5 μM; *** >5 μM; i.a. (inactive). Particulars: HEK293 cells transfected with ERRE reporter construct and pcDNA3.1 ERRγ; compound for 24 hours; luciferase activity.

The target of another assay is T2, ERRα (Homo sapiens, UniProt P11474).
T2 construct: expressed in transfected cells; host or cells: HEK293
T2 sequence (P11474 1-423): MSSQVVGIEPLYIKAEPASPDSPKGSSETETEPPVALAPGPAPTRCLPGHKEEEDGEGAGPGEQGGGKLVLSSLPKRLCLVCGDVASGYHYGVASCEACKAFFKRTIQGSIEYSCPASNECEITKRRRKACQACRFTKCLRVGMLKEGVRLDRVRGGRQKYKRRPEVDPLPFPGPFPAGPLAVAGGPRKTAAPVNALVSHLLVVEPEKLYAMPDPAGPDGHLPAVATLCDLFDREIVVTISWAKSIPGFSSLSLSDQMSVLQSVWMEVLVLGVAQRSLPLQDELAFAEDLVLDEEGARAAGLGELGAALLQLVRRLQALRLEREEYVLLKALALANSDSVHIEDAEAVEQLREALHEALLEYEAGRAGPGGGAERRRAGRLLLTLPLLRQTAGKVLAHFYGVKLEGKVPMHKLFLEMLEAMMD
The experiment in a line: ERRE luciferase reporter assay in HEK293 cells transfected with pcDNA3.1 ERRα. Type of assay: cell-based. Set-up: key to EC50 (ERRα) μM: * <1 μM; ** 1-5 μM; *** >5 μM; i.a. (inactive). Particulars: HEK293 cells transfected with ERRE reporter construct and pcDNA3.1 ERRα; compound for 24 hours; luciferase activity. For orientation: Reporter assays use an easily measured gene product as a stand-in for the process of interest.

Take `Cc1ccc(-c2nnc(-c3cccc4ccccc34)s2)cc1` [Entry 1043, 2-(naphthalen-1-yl)-5-(p-tolyl)-1,3,4-thiadiazole]: the EC50 on ERRγ and at ERRα was less than 1 µM throughout.
As to `Cc1ccc(-c2nnc(-c3ccc4ccccc4c3)s2)cc1` [Entry 1044, 2-(naphthalen-2-yl)-5-(p-tolyl)-1,3,4-thiadiazole], the values for the EC50 on ERRγ and at ERRα were less than 1 µM and greater than 5 µM, respectively.
For the compound `Cc1ccc(-c2nnc(-c3cccc(Cl)c3)s2)cc1` [Entry 1045, 2-(3-chlorophenyl)-5-(p-tolyl)-1,3,4-thiadiazole], the half-maximal effective concentration (EC50) at ERRγ and on ERRα was less than 1 µM in each case.
Consider `Oc1ccc(-c2nnc(-c3ccc4ccccc4c3)s2)cc1` [Entry 1046, 4-(5-(naphthalen-2-yl)-1,3,4-thiadiazol-2-yl)phenol], for which the EC50 on ERRγ and at ERRα was less than 1 µM in each case.
Consider `Oc1ccc(-c2nnc(-c3ccc4ccccc4n3)s2)cc1` [Entry 1047, 4-(5-(quinolin-2-yl)-1,3,4-thiadiazol-2-yl)phenol], for which, on ERRγ, the “EC50 (ERRγ) μM” value is on record as “i.a”. The “EC50 (ERRα) μM” value at ERRα is “i.a”.
As for `Cc1ccc(-c2nnc(-c3ccc(Cl)cc3)s2)cc1` [Entry 1048, 2-(4-chlorophenyl)-5-(p-tolyl)-1,3,4-thiadiazole], the EC50 at ERRγ and at ERRα was less than 1 µM in each case.
On to `COC(=O)c1cccc(-c2nnc(-c3ccccc3Cl)s2)c1` [Entry 1050, methyl 3-(5-(2-chlorophenyl)-1,3,4-thiadiazol-2-yl)benzoate], for which the EC50 on ERRγ and on ERRα was less than 1 µM throughout.
As to `COC(=O)c1ccc(-c2nnc(-c3ccccc3Cl)s2)cc1` [Entry 1051, methyl 4-(5-(2-chlorophenyl)-1,3,4-thiadiazol-2-yl)benzoate], the concentration for a half-maximal effect (EC50) on ERRγ and on ERRα was less than 1 µM throughout.
As for `CCCCOc1ccc(-c2nnc(-c3ccccc3Cl)s2)cc1` [Entry 1052, 2-(4-butoxyphenyl)-5-(2-chlorophenyl)-1,3,4-thiadiazole], the EC50 at ERRγ and at ERRα was less than 1 µM throughout.
As to `Cc1ccc(-c2nnc(-c3cnn(-c4ccccc4)c3)s2)cc1` [Entry 1053, 2-(1-phenyl-1H-pyrazol-4-yl)-5-(p-tolyl)-1,3,4-thiadiazole], the EC50 was less than 1 µM on ERRγ and greater than 5 µM on ERRα.
As for `Cc1ccc(-c2nnc(-c3ccc(B(O)O)cc3)s2)cc1` [Entry 1055, (4-(5-(p-tolyl)-1,3,4-thiadiazol-2-yl)phenyl)boronic acid], the EC50 on ERRγ and at ERRα was less than 1 µM in each case.
For the compound `Cc1ccc(-c2nnc(-c3cccc4ncccc34)s2)cc1` [Entry 1058, 2-(quinolin-5-yl)-5-(p-tolyl)-1,3,4-thiadiazole], the half-maximal effective concentration (EC50) on ERRγ and on ERRα was less than 1 µM in each case.
For `Clc1ccccc1-c1nnc(-c2cccc3ncccc23)s1` [Entry 1059, 2-(2-chlorophenyl)-5-(quinolin-5-yl)-1,3,4-thiadiazole], the EC50 on ERRγ and at ERRα was less than 1 µM in each case.
In the case of `Cc1ccc(-c2nnc(-c3nccs3)s2)cc1` [Entry 1060, 2-(thiazol-2-yl)-5-(p-tolyl)-1,3,4-thiadiazole], the EC50 at ERRγ and on ERRα was less than 1 µM each time.
For `Clc1ccccc1-c1nnc(-c2nccs2)s1` [Entry 1061, 2-(2-chlorophenyl)-5-(thiazol-2-yl)-1,3,4-thiadiazole], the EC50 on ERRγ and on ERRα was greater than 5 µM throughout.
On to `FC(F)(F)c1ccc(-c2nnc(-c3cccc4ncccc34)s2)cc1` [Entry 1062, 2-(quinolin-5-yl)-5-(4-(trifluoromethyl)phenyl)-1,3,4-thiadiazole], for which the EC50 at ERRγ and at ERRα was less than 1 µM throughout.
On to `COC(=O)c1cccc(-c2nnc(-c3ccc(C(F)(F)F)cc3)s2)c1` [Entry 1064, methyl 3-(5-(4-(trifluoromethyl)phenyl)-1,3,4-thiadiazol-2-yl)benzoate], for which the EC50 is 1 to 5 µM at ERRγ and greater than 5 µM on ERRα.
Take `COc1ccc(-c2nnc(-c3ccc(C(F)(F)F)cc3)s2)cn1` [Entry 1071, 2-(6-methoxypyridin-3-yl)-5-(4-(trifluoromethyl)phenyl)-1,3,4-thiadiazole]: the EC50 was 1 to 5 µM on ERRγ and less than 1 µM on ERRα.
Consider `Cc1cccc(-c2nnc(-c3cccc(C(F)(F)F)c3)s2)n1` [Entry 1073, 2-(6-methylpyridin-2-yl)-5-(3-(trifluoromethyl)phenyl)-1,3,4-thiadiazole], for which the half-maximal effective concentration (EC50) at ERRγ is 1 to 5 µM; at ERRα, greater than 5 µM.
The like results for `FC(F)(F)c1cccc(-c2nnc(-c3cccnc3Cl)s2)c1` [Entry 1074, 2-(2-chloropyridin-3-yl)-5-(3-(trifluoromethyl)phenyl)-1,3,4-thiadiazole] were, in that order, 1 to 5 µM and 1 to 5 µM.
The like results for `Cc1ccc(-c2nnc(-c3scnc3C)s2)cc1` [Entry 1080, 2-(4-methylthiazol-5-yl)-5-(p-tolyl)-1,3,4-thiadiazole] were, in that order, less than 1 µM and less than 1 µM.
For the compound `Cc1ccc(-c2nnc(-c3cncs3)s2)cc1` [Entry 1082, 2-(thiazol-5-yl)-5-(p-tolyl)-1,3,4-thiadiazole], the half-maximal effective concentration (EC50) at ERRγ and at ERRα was less than 1 µM each time.

In general, EC50 refers to the concentration at which the effect is half-maximal.
